Laboratory results taken from patent publication US20160274087A1, “SCREENING ASSAY FOR AGENTS THAT INFLUENCE BETA CELL NUMBER AND/OR PHENOTYPE” (VRIJE UNIVERSITEIT BRUSSEL, priority 2013, published 2016).
Marks after values point to notes of the source that are not given here.

What was measured:
beta cells = assay: Immunohistochemical analysis of Ki67 in pancreas after dexamethasone injection; format: in vivo, rat; settings: DEX 1 mg/Kg BW daily for 5 days; data not shown
[1] = Metabolic effects of in vivo dexamethasone administration
[2] = system: selected gene targets in FACS-purified beta cells; assay: Q-PCR on FACS-purified beta cells from dexamethasone-injected rats; settings: 5 single injections DEX 1 mg/kg BW daily
Excerpt: Control rats were given vehicle (saline).
RNA was extracted using RNeasy columns (Qiagen), and quality was verified using an Agilent Bioanalyzer. Following removal of genomic DNA (TURBO DNA-free, Ambion) and reverse-transcription (High-Capacity cDNA Archive Kit, Applied Biosystems), gene targets were amplified on an ABI Prism 7700 using TaqMan Universal PCR Master Mix and TaqMan MGB probes (Applied Biosystems, assay IDs available on request). Expression levels of target genes were normalized to 4 housekeeping genes (β-actin, HPRT1, rplp2 and psmc5) (ΔCt) and expressed versus a control condition as calibrator (comparative ΔΔCt method).

rat beta cells [3] = assay: Beta cell DNA synthesis/proliferation by EdU (and BrdU) incorporation, incl. LOPAC screen; format: cell-based; settings: LOPAC screen at 1 μM, adult rat beta cells, EdU day 3 to 6
Experimental: (§1) On day 1, 9 and 15 of culture, total numbers of living beta cells per well were determined by semi-automatic cell count, after Hoechst 33342 (Ho) and propidium iodide (PI) staining. Numbers of living beta cells were obtained by subtracting the PI-positive cell numbers from the Ho-positive cell numbers, and correcting for the percent insulin-negative cells, as determined following insulin-immunofluorescence staining. They were expressed as percent of the numbers on day 1. Each condition was also evaluated for increases in the percentage of proliferating beta cells (incorporating the thymidine-analogue 5-ethynyl-2′-deoxyuridine, EdU; 100 μmol/l). To detect beta cells that underwent two successive cycles, cells were sequentially exposed to two different thymidine-analogs, first EdU from day 3 to 6, and then BrdU (100 μmol/l) from day 7 to 10, with a 24-hour label-free period in between. EdU-positive (EdU^+) nuclei were detected with the Click-iT Assay kit (Invitrogen), while BrdU-positive (BrdU^+) nuclei were identified with anti-BrdU antibody.
Freshly purified beta cells were cultured in control medium for 24 h prior to the addition of the LOPAC test compounds (day 1). The culture medium was refreshed on day 3 and the cells were then cultured further with 5-ethynyl-2′-deoxyuridine (EdU; 10 μM) up to day 6. Cell viability and percentage EdU incorporation were quantified after imaging and image analysis using the BD Pathway Bioimager, as described before (Assefa et al., 2014). To test the significance of compound effect on beta cell proliferation, average Z-score for each compound was calculated and a cut-off for potential positive hits was set at a Z-score of greater than three standard deviations. Thus, a compound is considered a hit only if it increases the percent EdU incorporation to above three standard deviation of the plate-averaged percent EdU incorporation.
Sorted beta cells were seeded in 384-well or 6-well plates coated with 804G matrix, and kept in culture for up to 15 days at 37° C. 5% CO2 using Ham F10 supplemented with 1 mM L-glutamine, 0.1 mg/ml streptomycin, 0.075 mg/ml penicillin, 50 μM of isobutyl-1-methylxanthine (IBMX) at 10 mM D-glucose with and without synthetic GCs (6 methyl-prednisolone (6MP), dexamethasone (DEX), GR-modulators (compound A (CPA), mifepristone (MIF), and NFκB inhibitors (JSH-23 en Bay11-7085). Total cell number and beta cell viability was evaluated after incubation with Hoechst 33342 and propidium iodide. All chemicals were from Sigma Life Sciences or Merck. Quantification of cell numbers and analysis of beta-cell viability was done using the Pathway Bioimager (BD Biosciences) and using IPlab and Attovision software for background subtraction as described prior (Assefa et al., 2014). Replicating beta cells were quantified after 24 or 72 hrs incubation with 5-ethynyl-2′-deoxyuridine (EdU, a thymidine analog) using the ClickIT EDU Alexa Fluor assay (Invitrogen). EdU-positive cells were expressed as percentage of total cell number.

rat beta cells [4] = assay: Beta cell viability / cell death (propidium iodide assay); format: cell-based; settings: LOPAC screen at 1 μM; adult rat beta cells; day 6; control medium 97
Excerpt: as §1, with “Numbers” for “On day 1, 9 and 15 of culture, total numbers of living beta cells per well were determined by semi-automatic cell count, after Hoechst 33342 (Ho) and propidium iodide (PI) staining. Numbers”, “Each condition was also evaluated for increases in the percentage of proliferating beta cells (incorporating the thymidine-analogue 5-ethynyl-2′-deoxyuridine, EdU; 100 μmol/l).” left out
Absolute number of cells was determined by whole-well imaging using the BD-PathwayBioimager855 (BD-Biosciences). IPLab and AttoVision software packages (BD-Biosciences) were used for image background subtraction, segmentation and quantification.
Freshly purified beta cells were cultured in control medium for 24 h prior to the addition of the LOPAC test compounds (day 1). The culture medium was refreshed on day 3 and the cells were then cultured further with 5-ethynyl-2′-deoxyuridine (EdU; 10 μM) up to day 6. […] Thus, a compound is considered a hit only if it increases the percent EdU incorporation to above three standard deviation of the plate-averaged percent EdU incorporation.

[5] = target: T1, glucocorticoid receptor (GR) (Homo sapiens, UniProt P04150); settings: cited from earlier work
T1 sequence (P04150 1-777): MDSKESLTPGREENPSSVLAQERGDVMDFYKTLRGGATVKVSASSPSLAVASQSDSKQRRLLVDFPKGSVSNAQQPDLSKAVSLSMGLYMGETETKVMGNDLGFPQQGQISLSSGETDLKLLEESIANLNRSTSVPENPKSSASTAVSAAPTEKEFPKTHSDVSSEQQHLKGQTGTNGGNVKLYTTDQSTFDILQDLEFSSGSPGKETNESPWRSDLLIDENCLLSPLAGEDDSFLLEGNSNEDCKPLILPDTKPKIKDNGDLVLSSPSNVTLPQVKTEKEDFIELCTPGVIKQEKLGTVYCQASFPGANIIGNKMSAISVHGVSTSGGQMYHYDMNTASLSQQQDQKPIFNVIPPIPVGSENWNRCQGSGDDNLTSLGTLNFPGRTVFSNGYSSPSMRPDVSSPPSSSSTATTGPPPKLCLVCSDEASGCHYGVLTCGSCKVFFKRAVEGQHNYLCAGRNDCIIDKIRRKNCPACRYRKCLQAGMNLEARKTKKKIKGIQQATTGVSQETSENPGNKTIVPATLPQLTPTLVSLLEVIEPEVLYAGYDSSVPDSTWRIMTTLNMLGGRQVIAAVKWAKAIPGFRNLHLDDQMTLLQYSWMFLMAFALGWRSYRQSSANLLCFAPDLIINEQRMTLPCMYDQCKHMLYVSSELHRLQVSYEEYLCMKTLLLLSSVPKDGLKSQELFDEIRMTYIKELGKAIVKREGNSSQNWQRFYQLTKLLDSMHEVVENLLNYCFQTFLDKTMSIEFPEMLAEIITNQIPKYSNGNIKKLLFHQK

With `C[C@@H]1C[C@H]2[C@@H]3CCC4=CC(=O)C=C[C@]4(C)[C@@]3(F)[C@@H](O)C[C@]2(C)[C@@]1(O)C(=O)CO` [DEX, dexamethasone] as the molecule, how does the “increase of the percentage beta cells positive for Ki67” value (beta cells) read?
Its value is 3 fold.

What about the “loss of body weight” value ([1]; DEX 1 mg/Kg BW daily for 5 consecutive days) of the same molecule?
The value was 20%.

And the insulin content ([1]; DEX 1 mg/Kg BW daily for 5 days, MOCK 48 ± 7)?
The insulin content was 22 ± 3 ng/K beta cells.

What about the “IPGT 90 min” value ([1]; DEX 1 mg/Kg BW daily for 5 days, MOCK 81 ± 3) of the same molecule?
The value was 278 ± 44 mg/dL.

And the “IPGT 120 min” value ([1]; DEX 1 mg/Kg BW daily for 5 days, MOCK 82 ± 2)?
The value was 227 ± 62 mg/dL.

And the “IPGT 60 min” value ([1]; DEX 1 mg/Kg BW daily for 5 days, MOCK 83 ± 5)?
Its value is 375 ± 54 mg/dL.

And the Fasting glycemia ([1]; DEX 1 mg/Kg BW daily for 5 days, MOCK 85 ± 3)?
The Fasting glycemia was 169 ± 77 mg/dL.

What about the Islet insulin content ([1]; DEX 1 mg/Kg BW daily for 5 days, MOCK 100) of the same molecule?
Its Islet insulin content is 37 ** ng/islet.

And the “IPGT 30 min” value ([1]; DEX 1 mg/Kg BW daily for 5 days, MOCK 180 ± 14)?
Its value is 456 ± 41 mg/dL.

And the “IPGT 15 min” value ([1]; DEX 1 mg/Kg BW daily for 5 days, MOCK 360 ± 43)?
The value was 497 ± 16 mg/dL.

What about the Serum insulin ([1]; DEX 1 mg/Kg BW daily for 5 days, MOCK 4927 ± 724) of the same molecule?
The Serum insulin was 8447 ± 472 pg/mL.

What about the “Body weight Day 6” value ([1]; DEX 1 mg/Kg BW daily i.p. for 5 days, MOCK 382 ± 13) of the same molecule?
The value was 304 ± 11 g.

And the “Body weight Day 0” value ([1]; DEX group before treatment, MOCK 356 ± 8)?
Its value is 363 ± 13 g.

What about the “Cyclin B1 mRNA level (ΔΔCt values relative to control, adult male)” value [2] of the same molecule?
Its value is 6.5 ± 2.5 ^3.

And the “Cyclin B2 mRNA level (ΔΔCt values relative to control, adult male)” value [2]?
The value was 10.8 ± 5.1 ^3.

What about the “CyclinD1 mRNA level (ΔΔCt values relative to control, adult male)” value [2] of the same molecule?
Its value is 0.9 ± 0.4 ^.

What about the “DLK1 mRNA level (ΔΔCt values relative to control, adult male)” value [2] of the same molecule?
The value was 33.0 ± 19.1 ^3.

And the “FKBP5 mRNA level (ΔΔCt values relative to control, adult male)” value [2]?
Its value is 2.4 ± 0.2 ^.

And the “ICAM1 mRNA level (ΔΔCt values relative to control, adult male)” value [2]?
Its value is 0.1 ± 0.1 ^3.

And the “MafA mRNA level (ΔΔCt values relative to control, adult male)” value [2]?
The value was 0.3 ± 0.1 ^.

And the “MafB mRNA level (ΔΔCt values relative to control, adult male)” value [2]?
The value was 0.6 ± 0.2 ^.

What about the “NPY mRNA level (ΔΔCt values relative to control, adult male)” value [2] of the same molecule?
Its value is 3.3 ± 0.5 ^3.

And the “NR3C1 mRNA level (ΔΔCt values relative to control, adult male)” value [2]?
Its value is 0.5 ± 0.1 ^2.

What about the “Pdx1 mRNA level (ΔΔCt values relative to control, adult male)” value [2] of the same molecule?
Its value is 0.4 ± 0.2 ^.

For `C[C@]12C=CC(=O)C=C1CC[C@H]1[C@@H]3C[C@@H](O)[C@](O)(C(=O)CO)[C@@]3(C)C[C@H](O)[C@@]12F` [Triamcinolone], which “Percent EdU+ cells” value (rat beta cells [3]; control medium 5.6) is on record?
The value was 31.1%.

What about the Z-Score (rat beta cells [3]; hit cut-off three standard deviations) of the same molecule?
Its Z-Score is 5.9.

What about the Percent viable cells (rat beta cells [4]) of the same molecule?
Its Percent viable cells is 99%.

What about the “Relative Potencies GR” value [5] of the same molecule?
Its value is 5.
